pKi: −log10 of the molar value.
Biological target: T1, Alpha-methylacyl-CoA racemase (Rattus norvegicus, UniProt P70473)
T1 sequence (P70473 whole entry): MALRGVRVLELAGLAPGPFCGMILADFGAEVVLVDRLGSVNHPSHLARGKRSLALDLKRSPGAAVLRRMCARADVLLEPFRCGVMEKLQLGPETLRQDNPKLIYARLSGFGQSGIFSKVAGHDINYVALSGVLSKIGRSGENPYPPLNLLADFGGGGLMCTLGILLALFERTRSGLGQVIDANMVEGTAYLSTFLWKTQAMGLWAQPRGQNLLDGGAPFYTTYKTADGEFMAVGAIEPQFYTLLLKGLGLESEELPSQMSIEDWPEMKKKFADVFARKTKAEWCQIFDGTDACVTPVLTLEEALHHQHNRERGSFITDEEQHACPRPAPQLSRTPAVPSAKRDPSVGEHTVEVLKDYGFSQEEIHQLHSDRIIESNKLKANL
Experiment: AMACR Inhibition Assay
Details: pH 7; 37 °C
Experimental: AMACR activity was determined by monitoring the interconversion of the (25R/S)-isomer of THC-CoA. Reaction product was analyzed by resolution of (25S)-or (25R)-THC-CoA using HPLC, which was carried out with a reversed-phase C18-column and a linear gradient of methanol in potassium phosphate buffer (50 mM, pH 5.3). Kinetic parameters were determined using direct linear plot analysis.

Question: `CCCCCCC(C)C(=O)SCCNC(=O)CCNC(=O)C(O)C(C)(C)COP(=O)(O)OP(=O)(O)OC[C@H]1O[C@@H](n2cnc3c(N)ncnc32)[C@H](O)[C@@H]1OP(=O)(O)O` (stereo partly drawn) [{[(2R,3S,4R,5R)-5-(6-amino-9H-purin-9-yl)-4-hydroxy-2-({[hydroxy({[hydroxy(3-hydroxy-2,2-dimethyl-3-{[2-({2-[(2-methyloctanoyl)sulfanyl]ethyl}carbamoyl)ethyl]carbamoyl}propoxy)phosphoryl]oxy})phosphoryl]oxy}methyl)oxolan-3-yl]oxy}phosphonic acid] was tested. Which pKi did it give?
Answer: 4.35

Question: `CCCCCCCCCCCCC[C@H](F)[C@@H](C)C(=O)SCCNC(=O)CCNC(=O)C(O)C(C)(C)COP(=O)(O)OP(=O)(O)OC[C@H]1O[C@@H](n2cnc3c(N)ncnc32)[C@H](O)[C@@H]1OP(=O)(O)O` (stereo partly drawn) [((2R,3S)-3-Fluoro-2-methylhexadecanoyl-CoA, 5] was tested. Which pKi did it give?
Answer: 5.89

Question: `CCCCCCCCCCCCC[C@@H](F)[C@H](C)C(=O)SCCNC(=O)CCNC(=O)C(O)C(C)(C)COP(=O)(O)OP(=O)(O)OC[C@H]1O[C@@H](n2cnc3c(N)ncnc32)[C@H](O)[C@@H]1OP(=O)(O)O` (stereo partly drawn) [(2S,3R)-3-fluoro-2-methylhexadecanoyl-CoA, 6] was tested. Which pKi did it give?
Answer: 5.64

Question: How did the pKi turn out when `CCCCCCCCCCCCCC(C(=O)SCCNC(=O)CCNC(=O)C(O)C(C)(C)COP(=O)(O)OP(=O)(O)OC[C@H]1O[C@@H](n2cnc3c(N)ncnc32)[C@H](O)[C@@H]1OP(=O)(O)O)C(F)F` (some centres not stated) [2-Difluoromethylpentadecanoyl-CoA, 4] was run?
Answer: 4.70

Question: `CCCCCCCCCCCCC(C)C(=O)SCCNC(=O)CCNC(=O)C(O)C(C)(C)COP(=O)(O)OP(=O)(O)OC[C@H]1O[C@@H](n2cnc3c(N)ncnc32)[C@H](O)[C@@H]1OP(=O)(O)O` (some centres not stated) [2-methylmyristoyl CoA, 22] was tested. Which pKi did it give?
Answer: 3.86

Question: `C[C@@H](CC[C@H](F)[C@@H](C)C(=O)SCCNC(=O)CCNC(=O)C(O)C(C)(C)COP(=O)(O)OP(=O)(O)OC[C@H]1O[C@@H](n2cnc3c(N)ncnc32)[C@H](O)[C@@H]1OP(=O)(O)O)[C@H]1CC[C@H]2[C@@H]3[C@H](O)C[C@@H]4C[C@H](O)CC[C@]4(C)[C@H]3C[C@H](O)[C@]12C` (some centres not stated) [THC-CoA Analogue, 7] was tested. Which pKi did it give?
Answer: 5.42

Question: With `CCCCCCCCCCCCC(C(=O)SCCNC(=O)CCNC(=O)C(O)C(C)(C)COP(=O)(O)OP(=O)(O)OC[C@H]1O[C@@H](n2cnc3c(N)ncnc32)[C@H](O)[C@@H]1OP(=O)(O)O)C(F)(F)F` (some centres not stated) [2-Trifluoromethyltetradecanoyl-CoA, 3] as the compound, how does the pKi read?
Answer: 6.05

Reference: BindingDB's records for doi:10.1021/jm0702377 (University of Liverpool, 2007)
